US20100168233A1, “TERBINAFINE FORMULATION” (POWER PAPER LTD, priority 2007, published 2010)
Where a name gives a salt, the structure may show the parent alone. Read-outs that look alike come from different tables or passages of the source.

Assays:
[1] = In vitro testing of iontophoretic delivery of terbinafine forms and hydrogel formulations to the nail bed
Description: The acetic acid terbinafine salt may be used in the preparation of a medication for the treatment of any suitable disorder, such as the treatment of a fungal infection. In one aspect, the acetic acid terbinafine salt may be for treatment of onychomycosis.
The terbinafine acetate and/or mixture of terbinafine and acetic acid may be added to a hydrogel.

dermatophytes = conditions: cited from earlier work
[2] = cited from earlier work
[3] = cited from earlier work; remark: listed apart in the source

In the case of `CN(C/C=C/C#CC(C)(C)C)Cc1cccc2ccccc12` [terbinafine HCl, terbinafine hydrochloride], the “delivery of terbinafine to the nail bed” value [1] is given as “about 45 μg/cm^2” and the “minimum inhibitory concentration (MIC) for dermatophytes” value (dermatophytes) is given as “about 0.0015 μg/ml”.
For `CN(C/C=C/C#CC(C)(C)C)Cc1cccc2ccccc12` [terbinafine base, N,6,6-trimethyl-N-(naphthalen-1-ylmethyl) hept-2-en-4-yn-1-amine], the “delivery of terbinafine to the nail bed” value [1] is given as “about 10 μg/cm^2” and the water solubility ([2]; listed as Terbinafine base) is given as “significantly less water soluble”.
In the case of `CN(C/C=C/C#CC(C)(C)C)Cc1cccc2ccccc12` [terbinafine, N,6,6-trimethyl-N-(naphthalen-1-ylmethyl) hept-2-en-4-yn-1-amine], the pKa of terbinafine [3] is listed as “about 7.1”, the “solubility in methanol and ethanol” value [2] is listed as “very soluble” and the water solubility [2] is listed as “low”.
In the case of terbinafine acetate, the “delivery of terbinafine to the nail bed” value ([1]; in vitro, iontophoretic delivery, similar conditions) is reported as “about 150 μg/cm^2”.
